Source: the supplement of paper PMC4862054

What was measured:
Details in all cases: incubation time: 72 h
HCC1599 [1] = assay: drug sensitivity score (DSS), CellTox Green (DSS (AUC-based score)); higher = stronger drug effect (viability inhibition or cytotoxicity); extreme values may be limits of the assay
Method in brief: (§1)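 The drug sensitivity score reflects the area under a fitted dose-response curve. To obtain it, breast cancer cells in 20 µl suspension were seeded into 384-well plates containing compound at 5 concentrations, 10-fold apart over a compound-specific 10,000-fold range, and incubated 72 h. CellTox Green fluorescence (485/520 nm) was read first and CellTiter-Glo luminescence second, after 10 min at room temperature. Each plate was normalised to 0.1 % DMSO and a positive kill control.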

MDA-MB-436 [2] = assay: as above
Method in brief: as §1

BT-549 [3] = assay: as above
Method in brief: as §1

MDA-MB-231 [4] = assay: as above
Method in brief: as §1

HDQ-P1 [5] = assay: as above
Method in brief: as §1

HCC1937 [6] = assay: as above
Method in brief: as §1

HCC1599 [7] = assay: normalised viability (% of control), CellTiter-Blue; higher = more viable cells (about 100 = DMSO control)
Method in brief: (§2)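 The reported quantity is normalised viability at a single listed concentration of the series. Compound in 5 µl medium was pre-dispensed into 384-well plates and 20 µl of breast cancer cell suspension was added for 72 h. A 2 h, 37 °C CellTiter-Blue step (2.5 µl) preceded fluorescence reading at 560/590 nm, and plates were normalised to vehicle (100) and a positive kill control (0).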

MDA-MB-453 = assay: as above
Method in brief: as §2

HCC1143 = assay: as above
Method in brief: as §2

MDA-MB-436 [8] = assay: as above
Method in brief: as §2

MDA-MB-468 = assay: as above
Method in brief: as §2

CAL-148 = assay: as above
Method in brief: as §2

BT-474 = assay: as above
Method in brief: as §2

CAL-51 = assay: as above
Method in brief: as §2

BT-549 [9] = assay: as above
Method in brief: as §2

CAL-120 = assay: as above
Method in brief: as §2

SK-BR-3 = assay: as above
Method in brief: as §2

CAL-85-1 = assay: as above
Method in brief: as §2

MDA-MB-231 [10] = assay: as above
Method in brief: as §2

DU-4475 = assay: as above
Method in brief: as §2

HDQ-P1 [11] = assay: as above
Method in brief: as §2

MFM-223 = assay: as above
Method in brief: as §2

Hs578T = assay: as above
Method in brief: as §2

HCC1937 [12] = assay: as above
Method in brief: as §2

Question: Which drug sensitivity score (HCC1599 [1]) does the source give for `COc1ccc(-c2cc3c(C)nc(N)nc3n([C@H]3CC[C@H](OCCO)CC3)c2=O)cn1` here?
Answer: 0

Question: And the drug sensitivity score (MDA-MB-436 [2])?
Answer: 0

Question: What about the drug sensitivity score (BT-549 [3]) of the same compound?
Answer: 5.99

Question: And the drug sensitivity score (MDA-MB-231 [4])?
Answer: 14.1

Question: And the drug sensitivity score (HDQ-P1 [5])?
Answer: 6.58

Question: And the drug sensitivity score (HCC1937 [6])?
Answer: 1.39

Question: What about the normalised viability (HCC1599 [7]; 10 nM) of the same compound?
Answer: 115%

Question: And the normalised viability (HCC1599 [7]; 1000 nM)?
Answer: 35.1%

Question: What about the normalised viability (HCC1599 [7]; 10000 nM) of the same compound?
Answer: 28.2%

Question: What about the normalised viability (MDA-MB-453; 3 nM) of the same compound?
Answer: 103%

Question: What about the normalised viability (MDA-MB-453; 30 nM) of the same compound?
Answer: 66.5%

Question: And the normalised viability (MDA-MB-453; 100 nM)?
Answer: 48.5%

Question: And the normalised viability (HCC1143; 10 nM)?
Answer: 111%

Question: What about the normalised viability (HCC1143; 1000 nM) of the same compound?
Answer: 30.4%

Question: What about the normalised viability (HCC1143; 10000 nM) of the same compound?
Answer: 15%

Question: And the normalised viability (MDA-MB-436 [8]; 10 nM)?
Answer: 103%

Question: And the normalised viability (MDA-MB-436 [8]; 1000 nM)?
Answer: 15.8%

Question: And the normalised viability (MDA-MB-436 [8]; 10000 nM)?
Answer: 7.22%

Question: And the normalised viability (MDA-MB-468; 10 nM)?
Answer: 92.7%

Question: And the normalised viability (MDA-MB-468; 1000 nM)?
Answer: 21.5%

Question: And the normalised viability (MDA-MB-468; 10000 nM)?
Answer: 6.53%

Question: What about the normalised viability (CAL-148; 3 nM) of the same compound?
Answer: 87.6%

Question: What about the normalised viability (CAL-148; 30 nM) of the same compound?
Answer: 93%

Question: What about the normalised viability (CAL-148; 100 nM) of the same compound?
Answer: 78.6%

Question: What about the normalised viability (BT-474; 10 nM) of the same compound?
Answer: 91.8%

Question: What about the normalised viability (BT-474; 1000 nM) of the same compound?
Answer: 14.1%

Question: What about the normalised viability (BT-474; 10000 nM) of the same compound?
Answer: 0.59%

Question: What about the normalised viability (CAL-51; 3 nM) of the same compound?
Answer: 99.7%

Question: What about the normalised viability (CAL-51; 30 nM) of the same compound?
Answer: 89.1%

Question: And the normalised viability (CAL-51; 100 nM)?
Answer: 59%

Question: What about the normalised viability (BT-549 [9]; 10 nM) of the same compound?
Answer: 86.3%

Question: What about the normalised viability (BT-549 [9]; 1000 nM) of the same compound?
Answer: 19.1%

Question: And the normalised viability (BT-549 [9]; 10000 nM)?
Answer: 6.84%

Question: And the normalised viability (CAL-120; 10 nM)?
Answer: 107%

Question: And the normalised viability (CAL-120; 1000 nM)?
Answer: 21%

Question: What about the normalised viability (CAL-120; 10000 nM) of the same compound?
Answer: 11.3%

Question: What about the normalised viability (SK-BR-3; 10 nM) of the same compound?
Answer: 82.6%

Question: And the normalised viability (SK-BR-3; 1000 nM)?
Answer: 10.6%

Question: And the normalised viability (SK-BR-3; 10000 nM)?
Answer: 6.34%

Question: And the normalised viability (CAL-85-1; 3 nM)?
Answer: 102%

Question: And the normalised viability (CAL-85-1; 30 nM)?
Answer: 89.7%

Question: What about the normalised viability (CAL-85-1; 100 nM) of the same compound?
Answer: 84.5%

Question: And the normalised viability (MDA-MB-231 [10]; 10 nM)?
Answer: 84.7%

Question: What about the normalised viability (MDA-MB-231 [10]; 1000 nM) of the same compound?
Answer: 16.7%

Question: And the normalised viability (MDA-MB-231 [10]; 10000 nM)?
Answer: 8.35%

Question: What about the normalised viability (DU-4475; 3 nM) of the same compound?
Answer: 109%

Question: What about the normalised viability (DU-4475; 30 nM) of the same compound?
Answer: 96.7%

Question: What about the normalised viability (DU-4475; 100 nM) of the same compound?
Answer: 89%

Question: What about the normalised viability (HDQ-P1 [11]; 3 nM) of the same compound?
Answer: 76.7%

Question: And the normalised viability (HDQ-P1 [11]; 30 nM)?
Answer: 81.6%

Question: And the normalised viability (HDQ-P1 [11]; 100 nM)?
Answer: 39%

Question: And the normalised viability (MFM-223; 10 nM)?
Answer: 92%

Question: What about the normalised viability (MFM-223; 1000 nM) of the same compound?
Answer: 16%

Question: What about the normalised viability (MFM-223; 10000 nM) of the same compound?
Answer: 7.1%

Question: And the normalised viability (Hs578T; 10 nM)?
Answer: 96.1%

Question: And the normalised viability (Hs578T; 1000 nM)?
Answer: 17.9%

Question: And the normalised viability (Hs578T; 10000 nM)?
Answer: 3.2%

Question: And the normalised viability (HCC1937 [12]; 10 nM)?
Answer: 68.4%

Question: What about the normalised viability (HCC1937 [12]; 1000 nM) of the same compound?
Answer: 28%

Question: What about the normalised viability (HCC1937 [12]; 10000 nM) of the same compound?
Answer: 30.2%

Question: `Cc1c(Cn2c(C)nc3c(C(=O)O)cc(N4CCOCC4)cc32)cccc1C(F)(F)F` was tested. Which drug sensitivity score (HCC1599 [1]) did it give?
Answer: 0

Question: And the drug sensitivity score (MDA-MB-436 [2])?
Answer: 0

Question: What about the drug sensitivity score (BT-549 [3]) of the same compound?
Answer: 0

Question: What about the drug sensitivity score (MDA-MB-231 [4]) of the same compound?
Answer: 0

Question: What about the drug sensitivity score (HDQ-P1 [5]) of the same compound?
Answer: 0

Question: What about the drug sensitivity score (HCC1937 [6]) of the same compound?
Answer: 0

Question: Which results are given for `CC/C(=C(\c1ccc(O)cc1)c1ccc(OCCN(C)C)cc1)c1ccccc1` [4-hydroxytamoxifen]?
Answer: drug sensitivity score (HCC1599 [1]): 0; drug sensitivity score (MDA-MB-436 [2]): 0.732; drug sensitivity score (BT-549 [3]): 0; drug sensitivity score (MDA-MB-231 [4]): 4.16; drug sensitivity score (HDQ-P1 [5]): 0; drug sensitivity score (HCC1937 [6]): 8.17

Question: How did the drug sensitivity score (HCC1599 [1]) turn out when `CCCCC/C=C/C=C1/C(=O)C=C[C@@H]1C/C=C\CCCC(=O)O` [15D-PGJ2] was run?
Answer: 0

Question: And the drug sensitivity score (MDA-MB-436 [2])?
Answer: 0

Question: And the drug sensitivity score (BT-549 [3])?
Answer: 0

Question: What about the drug sensitivity score (MDA-MB-231 [4]) of the same compound?
Answer: 0

Question: And the drug sensitivity score (HDQ-P1 [5])?
Answer: 0

Question: And the drug sensitivity score (HCC1937 [6])?
Answer: 0
